One data set addresses T1, human VAP-1 (SSAO) (Homo sapiens, UniProt Q16853).
T1 construct: made in house
T1 sequence (Q16853 29-763 limits assumed): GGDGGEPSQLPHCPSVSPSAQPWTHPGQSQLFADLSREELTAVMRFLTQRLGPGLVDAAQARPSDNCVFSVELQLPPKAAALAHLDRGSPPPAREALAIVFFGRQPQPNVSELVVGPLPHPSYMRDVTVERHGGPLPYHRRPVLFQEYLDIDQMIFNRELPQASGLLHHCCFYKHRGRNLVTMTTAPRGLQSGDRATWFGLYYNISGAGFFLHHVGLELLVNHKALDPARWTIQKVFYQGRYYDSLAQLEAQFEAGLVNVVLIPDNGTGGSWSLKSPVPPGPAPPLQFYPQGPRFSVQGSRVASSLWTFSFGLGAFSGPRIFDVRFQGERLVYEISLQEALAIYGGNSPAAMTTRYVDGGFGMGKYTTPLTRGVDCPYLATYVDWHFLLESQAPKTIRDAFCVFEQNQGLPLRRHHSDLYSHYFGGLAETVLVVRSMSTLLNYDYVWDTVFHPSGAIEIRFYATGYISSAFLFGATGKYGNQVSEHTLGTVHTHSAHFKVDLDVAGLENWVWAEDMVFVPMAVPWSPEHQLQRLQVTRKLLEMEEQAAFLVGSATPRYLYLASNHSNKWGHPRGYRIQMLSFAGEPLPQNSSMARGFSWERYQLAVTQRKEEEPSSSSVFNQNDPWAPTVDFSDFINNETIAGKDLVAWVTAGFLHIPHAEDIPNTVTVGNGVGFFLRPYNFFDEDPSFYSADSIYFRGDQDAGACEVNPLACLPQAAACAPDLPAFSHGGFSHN
The data set can be described thus: VAP-1 Inhibition Assay. Format: biochemical. Conditions: purified recombinantly expressed human VAP-1 (SSAO), benzylamine substrate, room temperature. The method, then:
This assay is performed at room temperature with purified recombinantly expressed human VAP-1 (SSAO). Enzyme was prepared essentially as described in Ohman et al. (Protein Expression and Purification 46 (2006) 321-331). The enzyme activity is assayed with benzylamine as substrate by measuring either benzaldehyde production, using 14C-labeled substrate, or by utilizing the production of hydrogen peroxide in a horseradish peroxidise (HRP) coupled reaction. Briefly, test compounds are dissolved in dimethyl sulfoxide (DMSO) to a concentration of 10 mM. Dose-response measurements are assayed by either creating 1:10 serial dilutions in DMSO to produce a 7 point curve or by making 1:3 serial dilutions in DMSO to produce 11 point curves. The top concentrations are adjusted depending on the potency of the compounds and subsequent dilution in reaction buffer yielded a final DMSO concentration ≤2%.
Hydrogen peroxide detection: In a horseradish peroxidise (HRP) coupled reaction, hydrogen peroxide oxidation of 10-acetyl-3,7-dihydroxyphenoxazine produces resorufin, which is a highly fluorescent compound (Zhout and Panchuk-Voloshina. Analytical Biochemistry 253 (1997) 169-174; AmplexR Red Hydrogen Peroxide/peroxidise Assay kit, Invitrogen A22188). Enzyme and compounds in 50 mM sodium phosphate, pH 7.4 are set to pre-incubate in flat-bottomed microtiter plates for approximately 15 minutes before initiating the reaction by addition of a mixture of HRP, benzylamine and Amplex reagent. Benzylamine concentration is fixed at a concentration corresponding to the Michaelis constant, determined using standard procedures. Fluorescence intensity is then measured at several time points during 1-2 hours, exciting at 544 nm and reading the emission at 590 nm. For the human SSAO assay final concentrations of the reagents in the assay wells are: SSAO enzyme 1 mg/ml, benzylamine 100 μM, Amplex reagent 20 μM, HRP 0.1 U/mL and varying concentrations of test compound. The inhibition is measured as % decrease of the signal compared to a control without inhibitor (only diluted DMSO). The background signal from a sample containing no SSAO enzyme is subtracted from all data points. Data is fitted to a four parameter logistic model and IC50 values are calculated, for example by using the GraphPad Prism 4 or XLfit 4 programs.

Data set [1] has as its system sumatriptan-primed rats. The data set can be described thus: stress induced allodynia in a rat model of medication overuse headache (MOH). Conditions: bright light stress, oral 33.3 mg/ml, 3 ml/kg, measured day 21 over 5 h. Format: in vivo. The method, then:
The effects of compounds on stress induced allodynia in a rat model of medication overuse headache (MOH) The effects of compounds on stress induced cephalic and extracephalic allodynia in sumatriptan-primed rats was tested.
Sprague Dawley rats were implanted with osmotic minipumps (model 2001; Alzet, Cupertino, Calif., USA) providing continuous infusion of sumatriptan (0.6 mg/kg/day, s.c) or vehicle (saline, 0.9% NaCl) for 7 days. Mechanical facial (FIG. 1; A) and hindpaw (FIG. 1; C) allodynia was measured during a 19 day time course.
On day 20, when mechanical thresholds are at basal levels, all rats received either 4-{5-[3-(4-Fluorophenyl)-3H-imidazo[4,5-c]pyridin-2-yl]pyridin-2-yl}morpholine (compound 4) or vehicle orally (33.3 mg/ml, Dose 3 ml/kg) and then they were exposed to bright lights for 1 h (bright light stress; BLS). Rats received a second dose of the assigned treatment in the afternoon.
On day 21 all rats received a third dose of the assigned treatment and then they were again exposed to BLS for 1 h. Mechanical facial (FIG. 1; B) and hindpaw (FIG. 1; D) allodynia was measured over a 5 h time course.
Sumatriptan-treated, but not saline-treated, rats developed generalized allodynia during minipump infusion measured in the periorbital and hindpaw regions (FIG. 1; A, C; day 6). Mechanical thresholds returned to baseline on days 10 and 19. […]

Data set [2] in a line: CNS penetration (brain:plasma ratio). Type of data set: in vivo. Conditions: rat, whole brain homogenate and plasma, intravenous; total brain:plasma ratio adjusted for plasma protein binding and brain tissue binding; read-out: unbound (free) brain:plasma ratio. The text has this: Central nervous system (CNS) penetration of compounds of the invention can be determined by for example, intravenous dosing in a rat and subsequent quantitative LCMS analysis of the drug concentration in plasma and whole brain homogenate. The total brain:plasma ratio can then be calculated. This total ratio can be adjusted for plasma protein binding (PPB) and brain tissue binding (BTB) determined by standard means to give an unbound (free) brain:plasma ratio. For example, Compound 4 of the invention has an unbound (free) brain:plasma ratio of 0.72, indicating good CNS penetration of the compound.

A further data set deals with T2, VAP-1 (Homo sapiens, UniProt Q16853).
T2 sequence (Q16853 1-763): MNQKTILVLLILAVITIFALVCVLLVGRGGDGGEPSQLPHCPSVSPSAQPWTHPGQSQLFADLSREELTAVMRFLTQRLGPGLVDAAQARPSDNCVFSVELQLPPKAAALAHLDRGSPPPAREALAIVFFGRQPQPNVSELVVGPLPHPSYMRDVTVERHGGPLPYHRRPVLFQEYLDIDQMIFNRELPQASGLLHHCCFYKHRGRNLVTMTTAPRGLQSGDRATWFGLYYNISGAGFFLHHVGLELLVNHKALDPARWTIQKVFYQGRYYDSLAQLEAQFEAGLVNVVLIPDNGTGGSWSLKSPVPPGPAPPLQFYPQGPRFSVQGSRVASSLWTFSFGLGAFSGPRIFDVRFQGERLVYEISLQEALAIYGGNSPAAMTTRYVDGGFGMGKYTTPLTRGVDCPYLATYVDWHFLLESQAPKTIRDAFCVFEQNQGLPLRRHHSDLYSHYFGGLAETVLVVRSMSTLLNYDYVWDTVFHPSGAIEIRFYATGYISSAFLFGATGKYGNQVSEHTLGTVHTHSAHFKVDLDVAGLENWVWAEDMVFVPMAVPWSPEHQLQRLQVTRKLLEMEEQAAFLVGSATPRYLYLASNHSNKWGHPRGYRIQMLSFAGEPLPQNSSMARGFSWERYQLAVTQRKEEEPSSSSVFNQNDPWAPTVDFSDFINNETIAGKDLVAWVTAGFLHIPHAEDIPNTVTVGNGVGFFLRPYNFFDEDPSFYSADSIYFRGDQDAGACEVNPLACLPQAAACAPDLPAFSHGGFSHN
Conditions: known; cited from earlier work.

For data set [3] the following is noted: phase IIb chronic migraine study; cited from earlier work.
Data set [4] deals with sumatriptan-primed rats. Conditions: Kopruszinski et al, Cephalalgia, 2017; cited from earlier work.

One may read the IC50 as the point on the concentration scale where inhibition reaches its midpoint.

Turning to `CC(=O)N1CCN(c2ccc(-c3nc4ccncc4n3-c3ccc(F)cc3)cn2)CC1` [Compound 2, 1-(4-{5-[3-(4-Fluorophenyl)-3H-imidazo[4,5-c]pyridin-2-yl]pyridin-2-yl}piperazin-1-yl)ethan-1-one], the IC50 at human VAP-1 (SSAO) was determined as 0.031 µM. As to `Fc1ccc(-n2c(-c3ccc(N4CCOCC4)nc3)nc3ccncc32)cc1` [Compound 4, 4-{5-[3-(4-Fluorophenyl)-3H-imidazo[4,5-c]pyridin-2-yl]pyridin-2-yl}morpholine], in the data set on sumatriptan-primed rats [1], the stress-induced hindpaw allodynia result was “significantly reduced” and the stress-induced periorbital allodynia entry is “significantly reduced”. In addition, the unbound brain:plasma ratio (Kp,uu) in data set [2] is 0.72. In addition, at human VAP-1 (SSAO), the IC50 was determined as 0.013 µM.

Take `CS(=O)(=O)N1CCN(c2ccc(-c3nc4ccncc4n3-c3ccc(F)cc3)cn2)CC1` [Compound 3, 1-{5-[3-(4-Fluorophenyl)-3H-imidazo[4,5-c]pyridin-2-yl]pyridin-2-yl}-4-methanesulfonylpiperazine]: the IC50 on human VAP-1 (SSAO) turned out to be 0.004 µM. Take `NC(CO)C(=O)NNCc1ccc(O)c(O)c1O` (stereo not drawn) [benserazide, Benserazide]: the “inhibition of VAP-1” value at VAP-1 is “very good inhibitors of VAP-1”. On to `C[C@@](Cc1ccc(O)c(O)c1)(NN)C(=O)O` [(S)-Carbidopa, reference compound], for which the half-inhibitory concentration (IC50) at human VAP-1 (SSAO) was 0.142 µM. Also, the “inhibition of VAP-1” value on VAP-1 is “very good inhibitors of VAP-1”. Regarding `C=C(CNN)c1ccccc1` [LJP1207, reference compound], on human VAP-1 (SSAO), the IC50 was 0.034 µM.

B1: TEV48125: a fully humanised CGRP antibody (antibody, chains of the INN, looked up, V domains shown)
VH: EVQLVESGGGLVQPGGSLRLSCAASGFTFSNYWISWVRQAPGKGLEWVAEIRSESDASATHYAEAVKGRFTISRDNAKNSLYLQMNSLRAEDTAVYYCLAYFDYGLAIQNYWGQGTLVTVSS
VL: EIVLTQSPATLSLSPGERATLSCKASKRVTTYVSWYQQKPGQAPRLLIYGASNRYLGIPARFSGSGSGTDFTLTISSLEPEDFAVYYCSQSYNYPYTFGQGTKLEIK
For the molecule B1, the “efficacy in human clinical trials” value in data set [3] was “efficacious”. For the same molecule, the “efficacy in the MOH model” value in the data set with sumatriptan-primed rats [4] was “efficacious”.

The values above are taken from patent US20200147059A1, “NEW THERAPEUTIC USES OF ENZYME INHIBITORS” (Proximagen, LLC, priority 2017, published 2020).
